One block for each sequence: values may come before it. Ends that are not written are not given here.
Tests used:
[1] = SDS-PAGE; for Effect of pefabloc (serine protease inhibitor) on degradation in CF sputum, 24 h / Effect of pefabloc (serine protease inhibitor) on degradation in CF sputum, 4 h: 1 mM pefabloc pre-incubated 30 min with sputum (100-fold in TBS)
Protocol: Sputum from Pseudomonas-infected CF patients was obtained anonymously from the adult CF Centre at Belfast City Hospital. Sputum samples were in excess to requirements for diagnostic purposes. Permission to use sputum samples, which would have been disposed of, for validation purposes was given by the Director of R&D, Belfast Health and Social Care Trust. Sputum was frozen immediately at −80 °C and used the next day after thawing at room temperature.
Samples were transferred to a fresh Eppendorf at regular time-points (0, 1, 2, 3, 4, 18 and 24, as appropriate) and boiled on a heat block at 95 °C for ten minutes to terminate the reaction. […] CF sputum (diluted 100-fold in 1X TBS) was incubated with 0.1 mM E64, 5 mM EDTA or 1 mM pefabloc for 30 min prior to addition of peptides. Following the addition of peptide, the samples were incubated for four or 24 h at 37 °C. An aliquot was taken at 0, 4 or 24 h and boiled for ten minutes at 95 °C to terminate the reaction. Samples were stored at 4 °C until analysed by SDS-PAGE.
Peptide samples were separated by sodium dodecyl sulphate-polyacrylamide gel electrophoresis (SDS-PAGE) under denaturing and reducing conditions using 4–12% Invitrogen NuPAGE Novex Bis-Tris precast gels (Thermo Fisher Scientific, Loughborough, UK) and the Invitrogen XCell SureLock Mini-Cell (Thermo Fisher Scientific, Loughborough, UK). An aliquot of 10 μL peptide samples was incubated with 4 μL NuPAGE lithium dodecyl sulphate (LDS) sample buffer (Thermo Fisher Scientific) and 2 μL of 500 nM dithiothreitol (DTT) (Fluorochem, Hadfield, UK) for ten minutes at 95 °C and 15 μL of sample mixture loaded per lane and 5 μL of SeeBlue Plus2 pre-stained protein standard (Thermo Fisher Scientific, Loughborough, UK) loaded in at least one lane. The samples were run using 1X 2-morpholinoethanesulfonic acid (MES)-SDS running buffer (Thermo Fisher Scientific, Loughborough, UK). Electrophoresis was performed under a constant current of 125 mA for 40–60 min. The gel was stained using Biosafe Coomassie Brilliant Blue G-250 stain (Biorad, Watford, UK) for 60 min, washed and destained in water overnight and imaged using a Syngene G:box and GeneSnap software (Syngene, Cambridge, UK).

[2] = biological target: human sputum leucocyte elastase (neutrophil elastase, NE) (Homo sapiens, UniProt P08246); details: 500 nM NE, 37 °C, 0-4 h, hourly samples; peptide 500 μg/mL or parental molar equivalent (160 or 120 μM); SDS-PAGE, Coomassie, visual
Protocol: The method for reaction termination was dependent on subsequent experiments/analysis. For samples intended for investigation of peptide activity using in vitro experiments the reaction was terminated via addition of 1 mM of the serine protease inhibitor pefabloc (Merck, Gillingham, UK), which was added to all groups including the NE alone groups. Samples intended for peptide degradation analysis via SDS-PAGE or mass spectrometry were boiled at 95 °C for ten minutes using a heat block to terminate the reaction.
Peptide samples were separated by sodium dodecyl sulphate-polyacrylamide gel electrophoresis (SDS-PAGE) under denaturing and reducing conditions using 4–12% Invitrogen NuPAGE Novex Bis-Tris precast gels (Thermo Fisher Scientific, Loughborough, UK) and the Invitrogen XCell SureLock Mini-Cell (Thermo Fisher Scientific, Loughborough, UK). An aliquot of 10 μL peptide samples was incubated with 4 μL NuPAGE lithium dodecyl sulphate (LDS) sample buffer (Thermo Fisher Scientific) and 2 μL of […] dithiothreitol (DTT) (Fluorochem, Hadfield, UK) for ten minutes at 95 °C and 15 μL of sample mixture loaded per lane and 5 μL of SeeBlue Plus2 pre-stained protein standard (Thermo Fisher Scientific, Loughborough, UK) loaded in at least one lane. The samples were run using 1X 2-morpholinoethanesulfonic acid (MES)-SDS running buffer (Thermo Fisher Scientific, Loughborough, UK). Electrophoresis was performed under a constant current of 125 mA for 40–60 min. The gel was stained using Biosafe Coomassie Brilliant Blue G-250 stain (Biorad, Watford, UK) for 60 min, washed and destained in water overnight and imaged using a Syngene G:box and GeneSnap software (Syngene, Cambridge, UK).

[3] = biological target: neutrophil elastase (Homo sapiens, UniProt P08246); details: 500 μg/mL peptide, 500 nM NE in 1X TBS, 4 h, 37 °C; MALDI-TOF-MS
Protocol: The method for reaction termination was dependent on subsequent experiments/analysis. […] Samples intended for peptide degradation analysis via SDS-PAGE or mass spectrometry were boiled at 95 °C for ten minutes using a heat block to terminate the reaction.
This service was provided by the University of Dundee (Dundee, UK).

[4] = test system: human sputum leucocyte elastase (neutrophil elastase, NE); test: 500 nM of NE in 1 X TBS; details: 37 °C, up to four hours
[5] = CF sputum (diluted 100-fold in 1X tris-buffered saline (TBS)); details: CF patients, 37 °C, up to four hours
[6] = 5 mM EDTA pre-incubated 30 min with sputum (100-fold in TBS), then peptide 24 h at 37 °C

Chain of human sputum leucocyte elastase (neutrophil elastase, NE) (Homo sapiens, UniProt P08246) (P08246 30-247 limits assumed): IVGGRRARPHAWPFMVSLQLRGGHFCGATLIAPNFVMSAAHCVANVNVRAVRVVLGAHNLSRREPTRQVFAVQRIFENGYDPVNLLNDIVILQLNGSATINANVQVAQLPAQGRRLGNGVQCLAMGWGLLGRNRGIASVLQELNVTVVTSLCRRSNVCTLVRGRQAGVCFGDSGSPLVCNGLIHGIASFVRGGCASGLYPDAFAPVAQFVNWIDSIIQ
Chain of neutrophil elastase (P08246 30-247 limits assumed): as above

Sequence: KRFKKFFKKLKNSV [SnE1N]
Effect of pefabloc (serine protease inhibitor) on degradation in CF sputum, 24 h ([1]; then peptide 24 h at 37 °C): prevented degradation
Effect of EDTA (MMP inhibitor) on degradation in CF sputum, 24 h [1, 6]: prevented degradation
Cleavage by neutrophil elastase [2]: appeared to remain intact

Sequence: KRFKKFFKKLKNSVKKRAKKFFKKPRVIGVSIPF [SnE1]
Neutrophil elastase cleavage sites (peptide cleaved after each site marked) [3]: KRFKKFFKKLKNSV│[…]│GVSIPF
Cleavage by neutrophil elastase [2]: gradual transition from one band of larger molecular weight to one or more bands of smaller molecular weight

cleaved bond [4]: V-K and I-G
Sequence: KRFKKFFKKLKNSVKKRAKKFFKKPRVIGVSIPF

Sequence: KRFKKFFKKLKNSVKKRAKKFFKKPRVI [SnE1-F]
Effect of E64 (cysteine protease inhibitor) on degradation in CF sputum, 24 h ([1]; 0.1 mM E64 pre-incubated 30 min with sputum (100-fold in TBS), then peptide 24 h at 37 °C): did not prevent
Effect of pefabloc (serine protease inhibitor) on degradation in CF sputum, 4 h ([1]; then peptide 4 h at 37 °C): prevented in the presence of pefabloc
Effect of pefabloc (serine protease inhibitor) on degradation in CF sputum, 24 h ([1]; then peptide 24 h at 37 °C): prevented the degradation
Effect of EDTA (MMP inhibitor) on degradation in CF sputum, 24 h [1, 6]: did not prevent
Degradation in CF sputum within 4 h ([1]; CF sputum diluted 100-fold in 1X TBS, 37 °C, 0-4 h, peptide 500 μg/mL or parental molar equivalent (160 or 120 μM), Coomassie, visual): some degradation
Cleavage by neutrophil elastase [2]: gradual transition from one band of larger molecular weight to one or more bands of smaller molecular weight

Sequence: KRFKKFFKRLLKSV
not cleaved [5]: did not exhibit obvious degradation when incubated with CF sputum after 4 h

Sequence: KFFKRLLKSVRRAVKKFRKKPRLIGLSTLL [Sn1]
Effect of pefabloc (serine protease inhibitor) on degradation in CF sputum, 4 h ([1]; then peptide 4 h at 37 °C): prevented only by the inhibitor pefabloc

Sequence: KRFKKFFKRLLKSVRRAVKKFRKK [Sn1b]
Effect of EDTA (MMP inhibitor) on degradation in CF sputum, 4 h ([1]; 5 mM EDTA pre-incubated 30 min with sputum (100-fold in TBS), then peptide 4 h at 37 °C): inhibited
Cleavage by neutrophil elastase [2]: rapidly cleaved

Sequence: KRFKKFFKRLLKSV [Sn1bN]
Cleavage by neutrophil elastase [2]: did not result in obvious cleavage

cleaved bond [4]: V-R
Sequence: KRFKKFFKRLLKSVRRAVKKFRKK

Sequence: KRFKKFFKKVKKSVKKRLKKIFKKPMVIGVTIPF [SnV1]
Effect of pefabloc (serine protease inhibitor) on degradation in CF sputum, 4 h ([1]; then peptide 4 h at 37 °C): prevented only by the inhibitor pefabloc

Sequence: KFFKRLLKSVRRAVKKFRKK [Sn1a]
Effect of pefabloc (serine protease inhibitor) on degradation in CF sputum, 4 h ([1]; then peptide 4 h at 37 °C): prevented only by the inhibitor pefabloc

cleaved bond [4]: V-K and I-F
Sequence: KRFKKFFKKVKKSVKKRLKKIFKKPMVIGVTIPF

Source: paper PMC8394243 (Biomolecules, 2021)
